The text below walks through data of patent publication US4792609A, “Indoline and 1,2,3,4-tetrahydroquinoline N(dicarboalkoxyvinyl) substituted derivatives” (Bayer Aktiengesellschaft, priority 1985, dated 1988).

Data set [1] in a line: UV absorption (λmax, molar and specific extinction, intrinsic coloration). Format: physicochemical. The settings on record: for E (molar extinction coefficient): Table 1, at λmax; for specific extinction: text on Table 2, compared with compounds of formula I, in words.
Data set [2] in a line: solubility at RT in cosmetic oils. Format: physicochemical. The settings on record: for solubility at RT, groundnut/paraffin oil = 1:9: groundnut/paraffin oil = 1:9, printed as symbol.

Take `CCOC(=O)C(=CN1CCc2ccccc21)C(=O)OCC` [(1), N-(dicarboethoxyvinyl)indoline]: in data set [1] (Table 1), the λmax came to 330 nm. In addition, in data set [1], the E (molar extinction coefficient) stood at 32200 L/mol/cm. Moreover, in data set [1] (Table 2), the “specific extinction E^1” value came out at 1114 and the λmax came to 330 nm. The “solubility at RT, groundnut oil” value in data set [2] (printed as symbol) is listed as “.infin”. Moreover, the “solubility at RT, groundnut/paraffin oil = 1:9” value in data set [2] is on record as “.infin”.
`CCCCCCOC(=O)C(=CN1c2ccccc2CC1C)C(=O)OCCCCCC` (stereo not drawn) [(5), N-(dicarbohexyloxyvinyl)-2-methylindoline] registered a λmax in data set [1] (Table 1) of 332 nm. This molecule gave an E (molar extinction coefficient) in data set [1] of 25300 L/mol/cm. For the same molecule, in data set [1] (Table 2), the “specific extinction E^1” value is listed as 582 and the λmax turned out to be 332 nm. In addition, the “solubility at RT, groundnut oil” value in data set [2] (printed as symbol) is given as “.infin”. In data set [2], the “solubility at RT, groundnut/paraffin oil = 1:9” value was “.infin”.
Molecule `CCOC(=O)C(=CN1c2ccccc2CC1C)C(=O)OCC` (stereo not drawn) [Compound (2), N-(dicarboethoxyvinyl)-2-methylindoline] displayed a λmax in data set [1] (Table 1) of 330 nm. This molecule had an E (molar extinction coefficient) in data set [1] of 30000 L/mol/cm. In addition, in data set [1] (Table 2), the “specific extinction E^1” value was determined as 1008 and the λmax is 330 nm. Moreover, the “solubility at RT, groundnut oil” value in data set [2] (printed as symbol) is recorded as “.infin”. The “solubility at RT, groundnut/paraffin oil = 1:9” value in data set [2] is recorded as “.infin”.
For the molecule `COc1ccc(C(=O)c2cc(S(=O)(=O)O)c(OC)cc2O)c(O)c1` [Comparison example 1, sodium 2,2'-dihydroxy-4,4'-dimethoxybenzophenone-5-sulphonate, reference compound], in data set [1] (Table 2), the “specific extinction E^1” value is reported as 160 and the λmax is listed as 330 nm. Further, in data set [1], the specific extinction result is on record as “markedly lower specific extinction”.
Consider `CC(C)COC(=O)C(=CN1c2ccccc2CC1C)C(=O)OCC(C)C` (stereo not drawn) [(4), N-(dicarbo-iso-butoxyvinyl)-2-methylindoline], for which the λmax in data set [1] (Table 1) and in data set [1] (Table 2) was 331 nm in each case. Besides, the E (molar extinction coefficient) in data set [1] amounted to 26200 L/mol/cm. Moreover, the “specific extinction E^1” value in data set [1] (Table 2) was 730. Besides, in data set [2] (printed as symbol), the “solubility at RT, groundnut oil” value is “.infin”. For the same molecule, in data set [2], the “solubility at RT, groundnut/paraffin oil = 1:9” value is on record as “.infin”.
For `CCOC(=O)C(C(=O)OCC)=C(C)N1CCc2ccccc21` [(3), N-(α-methyl-β,β-dicarboethoxyvinyl)indoline], the λmax in data set [1] (Table 1) and in data set [1] (Table 2) was 338 nm throughout. Further, in data set [2] (printed as symbol), the “solubility at RT, groundnut oil” value was “.infin”. Besides, in data set [2], the “solubility at RT, groundnut/paraffin oil = 1:9” value is listed as “.infin”.
Turning to `COc1ccc(C(=O)CC(=O)c2ccc(OC)cc2)cc1` [Comparison example 3, dianisoylmethane, reference compound], in data set [2], the “solubility at RT, groundnut oil” value is 1%.
`CCOC(=O)C(=CN1CCCc2ccccc21)C(=O)OCC` [(6), N-(dicarboethoxyvinyl)-1,2,3,4-tetrahydroquinoline] registered a λmax in data set [1] (Table 1) of 317 nm. For the same molecule, the E (molar extinction coefficient) in data set [1] amounted to 26700 L/mol/cm. In data set [1] (Table 2), the “specific extinction E^1” value is recorded as 878 and the λmax is 317 nm. In addition, the “solubility at RT, groundnut oil” value in data set [2] (printed as symbol) is listed as “.infin”. In addition, in data set [2], the “solubility at RT, groundnut/paraffin oil = 1:9” value is “.infin”.
Take `O=C(c1ccc(O)cc1O)c1ccc(O)cc1O` [Comparison example 2, 2,2',4,4'-tetrahydroxybenzophenone, reference compound]: in data set [1] (Table 2), the “specific extinction E^1” value was determined as 645 and the λmax is recorded as 351 nm. Also, the specific extinction entry in data set [1] is on record as “markedly lower specific extinction”. For the same molecule, the “solubility at RT, groundnut oil” value in data set [2] is 0.8%.
